Key:
[1] = target: T1, CYP3A4 (Homo sapiens, UniProt P08684); test: Conventional LC-UV assay quantifying 6β-hydroxytestosterone formation by CYP3A4; details: LC-based IC50, recombinant CYP3A4 microsomes, testosterone substrate, LC-UV quantification of 6β-hydroxytestosterone
Procedure: (§1) 1′-hydroxymidazolam and microsomes (SUPERSOMES™) prepared from baculovirus-infected insect cells containing recombinant heterologously expressed human CYP plus NADPH CYP reductase were purchased from GenTest Corp. (Woburn, Mass., United States of America). 6β-hydroxytestosterone and 11α-hydroxyprogesterone were obtained from Steraloids Inc. (Wilton, N.H., United States of America).
Inhibition of CYP3A4-mediated oxidation of testosterone was measured by 6β-hydroxytestosterone formation. The kinetics of 6β-hydroxytestosterone formation by CYP3A4 was determined and compared to rate of fluorescence production. Reactions consisted of varying concentrations of testosterone, 50 pmol CYP3A4 per ml, and buffer to a final volume of one milliliter. Reactions were performed at 37° C. and were started upon addition of 1 mM NADPH. […] Samples were placed immediately on ice and the precipitated protein was removed by centrifugation for four minutes at 13,000 rpm. The supernatant was transferred to HPLC vials for analysis.
HPLC analysis was performed using an Agilent 1100 Series HPLC system (Agilent Technologies, Palo Alto, Calif., United States of America) equipped with an online UV-detector. […]

[2] = target: T1, CYP3A4; test: ROS-based fluorescence assay (DCFH-DA oxidation) of inhibition of CYP3A4-mediated testosterone oxidation; details: ROS-based IC50, recombinant CYP3A4 microsomes, testosterone substrate 40 μM
Procedure: as §1
Stock solutions of DCFH-DA (2.5 mM) and NADPH (20 mM) were prepared prior to each experiment in methanol and buffer, respectively. Substrates and inhibitors were prepared in 100% methanol and stored at −20° C. […] Unless otherwise indicated, testosterone were added to the reactions at a final concentration of 40 μM. An equal volume of methanol was added to samples containing no substrate and served as controls. Reactions were performed at 37° C. in 96-well black bottom plates. Inhibitors were added at varying concentrations from stock solutions prepared in either water or methanol. Final methanol concentrations were kept constant among samples (1%, v/v) to eliminate variability in the rate of fluorescence production due to the effect of methanol on CYP activity. […] The concentration of DCF in the reactions was determined using a standard curve constructed with authentic DCF. […]

T1 sequence (P08684 2-503 limits assumed): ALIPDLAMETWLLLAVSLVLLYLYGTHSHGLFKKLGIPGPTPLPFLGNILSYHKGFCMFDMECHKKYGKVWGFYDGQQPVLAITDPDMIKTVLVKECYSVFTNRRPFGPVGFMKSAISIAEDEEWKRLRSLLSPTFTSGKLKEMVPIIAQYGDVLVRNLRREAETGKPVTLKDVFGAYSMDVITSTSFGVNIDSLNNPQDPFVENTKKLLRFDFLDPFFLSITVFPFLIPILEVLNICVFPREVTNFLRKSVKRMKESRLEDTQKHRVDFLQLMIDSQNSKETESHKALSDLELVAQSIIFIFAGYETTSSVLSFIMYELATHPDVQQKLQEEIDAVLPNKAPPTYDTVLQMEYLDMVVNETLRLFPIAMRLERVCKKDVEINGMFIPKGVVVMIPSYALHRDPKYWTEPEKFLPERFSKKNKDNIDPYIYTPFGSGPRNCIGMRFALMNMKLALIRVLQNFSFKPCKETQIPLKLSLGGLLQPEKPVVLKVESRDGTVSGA

Row | SMILES | IC50 [1] | IC50 [2]
1 | CC(=O)[C@H]1CC[C@H]2[C@@H]3CCC4=CC(=O)CC[C@]4(C)[C@H]3CC[C@]12C [Progesterone] | 22.6 µM | 27.6 µM
2 | CC[C@H]1OC(=O)[C@H](C)[C@@H](O[C@H]2C[C@@](C)(OC)[C@@H](O)[C@H](C)O2)[C@H](C)[C@@H](O[C@@H]2O[C@H](C)C[C@H](N(C)C)[C@H]2O)[C@](C)(O)C[C@@H](C)C(=O)[C@H](C)[C@@H](O)[C@]1(C)O [Erythromycin] | 1.7 µM | 27.6 µM

— US20060223135A1, “High throughput reactive oxygen species-based cytochrome P450 inhibition assay” (The University of North Carolina at Chapel Hill, priority 2005, published 2006)
